In patent US10509041B2, “Glucose derivative, and cell imaging method and imaging agent using said derivative” (HIROSAKI UNIVERSITY, priority 2014, dated 2019):
Several values for one entry are separate records, joined by “and”; a condition that tells them apart may be missing. Identical values can stand only once.

Legend:
[1] = system: MIN6 cell masses (spheroids); test: Fluorescent imaging of tumor cell masses (spheroids) of MIN6 cells with mixed fluorescent glucose derivative solutions; type: cell-based, mouse; conditions: 3 minutes, 6 minutes after start of washout
Procedure: A fluorescent mixed solution containing 100 μM CDG, 100 μM 2-NBDLG, and 20 μM 2-TRLG (CDG/2-NBDLG/2-TRLG) was administered at 37° C. for 3 minutes to MIN6 cell masses (spheroids) at culture day 17, and fluorescent imaging was conducted.
10 μL of a culture solution containing MIN6 cells suspended at a density of 6×10^4 cells/mL was added dropwise onto each glass cover slip, and then, the glass cover slip was left standing for 40 minutes in an incubator for fixation to the glass surface. The cells were cultured by the addition of 3 mL of a culture solution (600 cells/slip). Spheroids were formed by continuing the culture for 15 to 17 days. Half the amount of the culture solution was replaced with a fresh one once every three days.
The MIN6 cells used were cells kindly provided by professor Junichi Miyazaki (Osaka University) and subcultured 6 to 10 times. Half the amount of the culture solution was replaced with a fresh one once every two days.
13.4 g of high glucose-containing Dulbecco's modified Eagle's Medium (DMEM-HG) (Sigma-Aldrich, #D5648), 3.4 g of NaHCO3, and 5 μL of 2-mercaptoethanol were dissolved in 1 L of ultrapure water, and the pH of the solution was adjusted to 7.30 to 7.35 in a CO2 incubator of 37° C. The culture solution was supplemented with fetal bovine serum (Hyclone, Cat# SH30070.03) at a final concentration of 10% and penicillin-streptomycin at a final concentration of 0.5%.
The whole amount of the 0.5 mg CDG vial was recovered using 0.73 mL in total of 10% DMSO and dissolved by addition to 7.0 ml of a KRB solution for image acquisition according to the method described in Non Patent Literature 2.
The whole amount of one 0.5 mg 2-NBDLG vial was dissolved in 7.3 mL of a KRB solution for image acquisition.
The CDG solution and the 2-NBDLG solution were mixed at a ratio of 1:1. The whole amount of the 0.2 mg 2-TRLG vial was recovered using 130 μL in total of DMSO and mixed with 13 ml of the CDG+2-NBDLG mixed solution according to the method described in Non Patent Literature 2 (final concentration: 100 μM CDG+100 μM 2-NBDLG+20 μM 2-TRLG mixed solution). […]
The glass cover slip with the cultured MIN6 cells was transferred into the KRB solution for image acquisition in a perfusion chamber loaded on a stage of a fluorescence microscope, followed by measurement. […]
The KRB solution for image acquisition was warmed in advance in an aluminum syringe heater and supplied to the perfusion chamber through hydrostatic pressure. […] Immediately before being introduced to the perfusion chamber, the solution was rewarmed via an inline heater so that the actually measured temperature of the perfusate in an observation region in the chamber was adjusted to 36±1° C. […]

[2] = Fluorescence spectrum (excitation and fluorescence maxima); type: physicochemical
Source text: The fluorescence spectra of CDG synthesized in (1) and QDG synthesized in (2) were compared with the fluorescence spectrum of 2-NBDLG (manufactured by Peptide Institute, Inc.).
The numeric values described above the graph denote the fluorescence maximum of CDG and QDG, respectively. It is evident that the fluorescence maximum was largely shifted to shorter wavelength as compared with the fluorescence maximum of 2-NBDLG present around 550 nm.

[3] = system: mouse insulinoma cells (MIN6); test: Increase in fluorescence intensity (uptake) after administration of fluorescent glucose derivative to MIN6 cells, influence of cytochalasin B (CB) or phloretin (PHT), fluorescence microplate reader; type: cell-based; conditions: for effect of PHT on increase in fluorescence intensity (uptake) caused by administration: CDG and CLG on the same dish

maximum excitation wavelength (Ex max) [2]	maximum fluorescence wavelength (Em max) [2]	Structure (SMILES)	uptake into cells of MIN6 spheroids, intracellular localization ([1]; 100 μM CDG+100 μM 2-NBDLG+20 μM 2-TRLG mixed solution, culture day 17)	fluorescence intensity in the presence of PHT relative to the absence of PHT ([3]; CDG 100 μM, 37° C. 5 minutes, PHT 150 μM, MIN6 culture day 13, average, two independent experiments)	effect of PHT on increase in fluorescence intensity (uptake) caused by administration ([3]; MIN6 culture day 15, 5 minutes)	uptake into cells of MIN6 spheroids, intracellular localization ([1]; 100 μM CLG+100 μM 2-NBDLG+20 μM 2-TRLG mixed solution, culture day 15)	increase in fluorescence intensity caused by administration, compared with CDG (D/L stereoselectivity) ([3]; same dish, MIN6 culture day 15, 5 minutes)
366.5 nm	454.5 nm	O=c1ccc2ccc(NC3C(O)OC(CO)[C@@H](O)[C@@H]3O)cc2o1 (stereo partly drawn) [CDG, 2-deoxy-2-(2-oxo-2H-chromen-7-yl)amino-D-glucose]	not only taken into the cytoplasm but unexpectedly taken into the nucleus	28.5% and 28.8%	significantly inhibited	–	–
366.5 nm	454.5 nm	O=c1ccc2ccc(NC3C(O)OC(CO)[C@H](O)[C@H]3O)cc2o1 (stereo partly drawn) [CLG, 2-deoxy-2-(2-oxo-2H-chromen-7-yl)amino-L-glucose]	–	–	significantly inhibited	strongly taken not only into the cytoplasm but into the nucleus	significantly smaller
